# Experimental data: EP1017810B1, “AGONIST AND ANTAGONIST PEPTIDES OF CARCINOEMBRYONIC ANTIGEN (CEA)” (THE GOVERNMENT OF THE UNITED STATES OF AMERICA, as …, priority 1997, dated 2004)
# Where no end group is shown, it is not given here.
# Test system: CEA CTL T-Vac8
# Test: initial screening cytotoxicity assay, 111In release from peptide-incubated C1R-A2 cells with T-Vac8 CTL
# Type: cell-based, human
# Details: peptide at 1, 0.1 and 0.01 µg/ml, E:T=1.45:1, 4 hours
row,Molecule,activation of T-Vac8 cytotoxicity (lysis of peptide-incubated targets)
1,CC(C)C[C@H](NC(=O)[C@H](CC(N)=O)NC(=O)[C@H](CC(C)C)NC(=O)[C@H](CC(=O)O)NC(=O)[C@H](C)NC(=O)CNC(=O)[C@H](CO)NC(=O)[C@H](CC(C)C)NC(=O)[C@@H](N)Cc1ccc(O)cc1)C(=O)O [CAP1-6D],equal to or better than CAP1
2,CC[C@H](C)[C@H](NC(=O)[C@H](CC(N)=O)NC(=O)[C@H](C)NC(=O)CNC(=O)[C@H](CO)NC(=O)[C@H](CC(C)C)NC(=O)[C@@H](N)Cc1ccc(O)cc1)C(=O)N[C@@H](CC(N)=O)C(=O)N[C@@H](CC(C)C)C(=O)O [CAP1-7I],appeared to be active
3,YLSGACLNL [CAP1-6C],equal to or better than CAP1
4,YLSGFNLNL [CAP1-5F],"provided stimulation, albeit at reduced levels compared to CAP1 itself"
5,YLSGINLNL [CAP1-5I],"provided stimulation, albeit at reduced levels compared to CAP1 itself"
6,YLSGSNLNL [CAP1-5S],"provided stimulation, albeit at reduced levels compared to CAP1 itself"
